Test results published in US20150133373A1, “TRANSMUCOSAL DELIVERY OF ENGINEERED POLYPEPTIDES” (priority 2012, published 2015).
Where two headings read alike, the source gives them in different places. No end group written: not given here. *: point of attachment. maleimido‑mono‑amide‑DOTA = O=C(O)CN1CCN(CC(=O)O)CCN(CC(=O)NCCN2C(=O)CC(*)C2=O)CCN(CC(=O)O)CC1

Legend:
NIH/Swiss mice = assay: OGTT DOA (oral glucose tolerance test for duration of action) in NIH/Swiss mice; type: in vivo, mouse; settings: for % Glucose Lowering Compared to Vehicle: Table 6, 25 nmol/kg IP at t=−1 day, blood glucose at 30 min after glucose gavage ([…]), 4 hr fasted NIH/Swiss female mice; for activity in OGTT DOA when dosed 24 hours before the glucose gavage (in words): dosed at t-24 hours
[1] = system: IgG molecules present in normal human sera; assay: Serum response analysis (ELISA, IgG binding to albumin binding polypeptides)
Method: Each serum sample was tested as a singlet.

[2] = Melting temperature (Tm) by circular dichroism; type: physicochemical; settings: CD at 221 nm, 20° to 90° C., 1×PBS, 0.4-0.5 mg/ml
Method: Purified albumin binding polypeptide variants were diluted in 1×PBS, to final concentrations between 0.4 and 0.5 mg/ml. Circular dichroism (CD) analysis was performed on a Jasco J-810 spectropolarimeter in a cell with an optical path-length of 1 mm. In the variable temperature measurements, the […] was measured at 221 nm from 20° to 90° C., with a temperature slope of 5° C./min.
The melting temperatures (Tm) of the different albumin binding polypeptide variants were calculated by determining the midpoint of the transition in the CD vs. temperature plot.

[3] = Stability in a pancreatin enzyme mixture; type: in vitro ADME; settings: isolated enzyme pancreatin
Pancreatin = assay: Stability in a pancreatin enzyme mixture; type: in vitro ADME; settings: pH 6.8
[4] = system: CD3+CD4+ T cells (PBMC from 52 human Caucasian individuals)
C57BL6 female mice = assay: Kidney vacuolization (cytoplasmic vacuolation of renal cortical tubular epithelial cells); type: in vivo, mouse; settings: Example 32; sc injection on days 0-6, kidneys on day 7
Method: (§1) With some drugs, such as some pegylated proteins, undesirable vacuoles can form in cytoplasm of epithelial cells lining the proximal convoluted tubules, which is an undesirable toxicity measure. […] C57BL6 female mice (n=2 cages, 3 mice/cage) were weighed daily 3 hours prior to lights out Immediately after weighing, on days 0-6 mice were injected subcutaneously with test compound. Mice were sacrificed on day 7 and kidneys submitted for histopathology. […] A positive control compound known to cause vacuole formation was scored as 3. The ABD polypeptide itself scored 0.
as §1, with “3.” for “3. The ABD polypeptide itself scored 0.”

GLP-1 receptor = molecular target: T1, GLP-1 receptor (Rattus norvegicus, UniProt P32301); assay: GLP-1 receptor functional activity (cAMP induction, HTRF cell-based assay, 6-23 (clone 6) cells)
T1 construct: cells that endogenously express GLP-1R; host or cells: rat thyroid carcinoma 6-23 (clone 6) cells
T1 sequence (P32301 22-463): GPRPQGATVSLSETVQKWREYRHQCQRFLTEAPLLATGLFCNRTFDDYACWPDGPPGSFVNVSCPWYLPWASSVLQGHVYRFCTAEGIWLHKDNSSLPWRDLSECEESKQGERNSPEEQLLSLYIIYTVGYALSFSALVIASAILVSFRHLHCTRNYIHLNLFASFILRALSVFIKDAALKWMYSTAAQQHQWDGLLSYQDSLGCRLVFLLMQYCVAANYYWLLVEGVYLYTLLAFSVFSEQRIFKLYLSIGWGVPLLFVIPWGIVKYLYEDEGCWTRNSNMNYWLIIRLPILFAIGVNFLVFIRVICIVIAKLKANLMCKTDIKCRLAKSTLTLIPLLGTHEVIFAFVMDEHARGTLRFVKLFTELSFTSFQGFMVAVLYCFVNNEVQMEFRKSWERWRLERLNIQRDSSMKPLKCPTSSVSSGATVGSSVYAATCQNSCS

HGEGTFTSDLSKQMEEEAVRLFIEWLKNTGGGGSASLAEAKVLANRELDKYGVSDFYKRLINKAKTVEGVEALKLHILAALP [Cmpd 10]
% Glucose Lowering Compared to Vehicle (NIH/Swiss mice): −22%

GSLAEAKEAANAELDSYGVSDFYKRLIDKAKTVEGVEALKDAILAALP [PEP07986]
activity in OGTT DOA when dosed 24 hours before the glucose gavage (in words) (NIH/Swiss mice): inactive

GSSLASAKEAANAELDSYGVSDFYKRLIDKAKTVEGVEALKDAILAALP [PEP07554]
reactivity with IgG of human sera (in words) [1]: least reactivity | Tm [2]: 58 °C

CC[C@H](C)[C@H](NC(=O)[C@H](Cc1ccccc1)NC(=O)[C@H](CCC(=O)O)NC(=O)[C@H](CCCCN)NC(=O)[C@H](C)NC(=O)[C@H](C)NC(=O)[C@H](CCC(N)=O)NC(=O)CNC(=O)[C@H](CCC(=O)O)NC(=O)[C@H](CC(C)C)NC(=O)[C@H](Cc1ccc(O)cc1)NC(=O)[C@H](CO)NC(=O)[C@H](CO)NC(=O)[C@@H](NC(=O)[C@H](CC(=O)O)NC(=O)[C@H](CO)NC(=O)[C@@H](NC(=O)[C@H](Cc1ccccc1)NC(=O)[C@@H](NC(=O)CNC(=O)[C@H](CCC(=O)O)NC(=O)[C@H](C)NC(=O)[C@@H](N)Cc1c[nH]cn1)[C@@H](C)O)[C@@H](C)O)C(C)C)C(=O)N[C@@H](C)C(=O)N[C@@H](Cc1c[nH]c2ccccc12)C(=O)N[C@@H](CC(C)C)C(=O)N[C@H](C(=O)N[C@@H](CCCCN)C(=O)NCC(=O)N[C@@H](CCCNC(=N)N)C(N)=O)C(C)C [GLP-1 (7-36) (Human)]
remaining at 0.5 h, 30 micromolar ([3]; pancreatin enzyme mixture, 50 mM phosphate buffer pH 6.8, 37° C., 30 minutes, read-out: Percent Remaining at 30 minutes): 39% | remaining at 1 h, 30 micromolar ([3]; pancreatin enzyme mixture, 50 mM phosphate buffer pH 6.8, 37° C., 60 minutes, read-out: Percent Remaining at 60 minutes): 24%

CCCCCCCCCCCCCCCC(=O)N[C@@H](CCC(=O)NCCCC[C@H](NC(=O)[C@H](C)NC(=O)[C@H](C)NC(=O)[C@H](CCC(N)=O)NC(=O)CNC(=O)[C@H](CCC(=O)O)NC(=O)[C@H](CC(C)C)NC(=O)[C@H](Cc1ccc(O)cc1)NC(=O)[C@H](CO)NC(=O)[C@H](CO)NC(=O)[C@@H](NC(=O)[C@H](CC(=O)O)NC(=O)[C@H](CO)NC(=O)[C@@H](NC(=O)[C@H](Cc1ccccc1)NC(=O)[C@@H](NC(=O)CNC(=O)[C@H](CCC(=O)O)NC(=O)[C@H](C)NC(=O)[C@@H](N)Cc1cnc[nH]1)[C@@H](C)O)[C@@H](C)O)C(C)C)C(=O)N[C@@H](CCC(=O)O)C(=O)N[C@@H](Cc1ccccc1)C(=O)N[C@H](C(=O)N[C@@H](C)C(=O)N[C@@H](Cc1c[nH]c2ccccc12)C(=O)N[C@@H](CC(C)C)C(=O)N[C@H](C(=O)N[C@@H](CCCNC(=N)N)C(=O)NCC(=O)N[C@@H](CCCNC(=N)N)C(=O)NCC(=O)O)C(C)C)[C@@H](C)CC)C(=O)O [liraglutide, [N-epsilon-(gamma-Glu(N-alpha-hexadecanoyl))-Lys26,Arg34]-GLP-1-(7-37)-acid]
susceptibility to pancreatic enzymes (in words) (Pancreatin): relatively resistant to pancreatic enzymes | remaining at 0.5 h, 30 micromolar ([3]; pH 6.8): 100% | remaining at 1 h, 30 micromolar ([3]; pH 6.8): 100%

PEP07975: DOTA-conjugated PEP07834, SEQ ID NO:460, via Cys14 with maleimido-mono-amide-DOTA; amidated at the C-terminus (ALASAKEAANAELDC(maleimido‑mono‑amide‑DOTA)YGVSDFYKRLIDKAKTVEGVEALKDAILAALP-NH2)
Tm [2]: 50 °C

HGEGTFTSDLSKQLEEEAVRLFIEWLKQGGPSKEIISGGSLAEAKVLANRELDKYGVSDFYKRLINKAKTVEGVEALKLHILAALP [Cmpd 33]
% Glucose Lowering Compared to Vehicle (NIH/Swiss mice): −19%

TT: tetanus toxoid (TT, Statens Serum Institut), positive control [reference compound]
number of responding individuals as compared to buffer only ([4]; 52 donors): 49

HGEGTFTSDLSKQLEEEAVRLFIEWLKQGGPSKEIISTGGGGSGGGSGGGSGGGSASLAEAKVLANRELDKYGVSDFYKRLINKAKTVEGVEALKLHILAALP [Cmpd 8]
% Glucose Lowering Compared to Vehicle (NIH/Swiss mice): −21%

HGEGTFTSDLSKQLEEEAVRLFIEWLKNGGPSSGAPPKSTGGGGSASGSLAEAKEAANAELDSYGVSDFYKRLIDKAKTVEGVEALKDAILAALP [Cmpd 2-6]
Percent glucose lowering compared to vehicle (NIH/Swiss mice; Table 17, 25 nmol/Kg, OGTT at 24 hours post drug administration, 30 minutes post gavage): −22%

CC[C@H](C)[C@H](NC(=O)[C@H](C)NC(=O)[C@H](CC(=O)O)NC(=O)[C@H](CCCCN)NC(=O)[C@H](CC(C)C)NC(=O)[C@H](C)NC(=O)[C@H](CCC(=O)O)NC(=O)[C@@H](NC(=O)CNC(=O)[C@H](CCC(=O)O)NC(=O)[C@@H](NC(=O)[C@@H](NC(=O)[C@H](CCCCN)NC(=O)[C@H](C)NC(=O)[C@H](CCCCN)NC(=O)[C@H](CC(=O)O)NC(=O)[C@@H](NC(=O)[C@H](CC(C)C)NC(=O)[C@H](CCCNC(=N)N)NC(=O)[C@H](CCCCN)NC(=O)[C@H](Cc1ccc(O)cc1)NC(=O)[C@H](Cc1ccccc1)NC(=O)[C@H](CC(=O)O)NC(=O)[C@H](CO)NC(=O)[C@@H](NC(=O)CNC(=O)[C@H](Cc1ccc(O)cc1)NC(=O)[C@H](CSC1CC(=O)N(CCNC(=O)CN2CCN(CC(=O)O)CCN(CC(=O)O)CCN(CC(=O)O)CC2)C1=O)NC(=O)[C@H](CC(=O)O)NC(=O)[C@H](CC(C)C)NC(=O)[C@H](CCC(=O)O)NC(=O)[C@H](C)NC(=O)[C@H](CC(N)=O)NC(=O)[C@H](C)NC(=O)[C@H](C)NC(=O)[C@H](CCC(=O)O)NC(=O)[C@H](CCCCN)NC(=O)[C@H](C)NC(=O)[C@H](CO)NC(=O)[C@H](C)NC(=O)[C@H](CC(C)C)NC(=O)CN)C(C)C)[C@@H](C)CC)[C@@H](C)O)C(C)C)C(C)C)C(=O)N[C@@H](CC(C)C)C(=O)N[C@@H](C)C(=O)N[C@@H](C)C(=O)N[C@@H](CC(C)C)C(=O)N1CCC[C@H]1C(=O)O (stereo partly drawn) [PEP07968]
reactivity with IgG of human sera (in words) [1]: least reactivity | immunogenicity classification (in words) [4]: non-immunogenic | number of responding individuals as compared to buffer only [4]: 1

HGEGTFTSDLSKQMEEEAVRLFIEWLKNGGSLAEAKVLANRELDKYGVSDFYKRLINKAKTVEGVEALKLHILAALP [Cmpd 32]
activity in OGTT DOA when dosed 24 hours before the glucose gavage (in words) (NIH/Swiss mice): no glucose lowering

HGEGTFTSDLSKQLEEEAVRLFIEWLKQGGPSKEIISTGGGGSASGSLAEAKEAANAELDSYGVSDFYKRLIDKAKTVEGVEALKDAILAALP [Cmpd 2-5]
Severity score for cytoplasmic vacuolation of renal cortical tubular epithelial cells (C57BL6 female mice): 0

B1: HGEGTFTSDLSKQLEEEAVRLFIEWLKNTGGGGSASGSLAEAKEAANAELDSYGVSDFYKRLIDKAKTVEGVEALKDAILAALP (protein)
chain: HGEGTFTSDLSKQLEEEAVRLFIEWLKNTGGGGSASGSLAEAKEAANAELDSYGVSDFYKRLIDKAKTVEGVEALKDAILAALP
activity in OGTT DOA when dosed 24 hours before the glucose gavage (in words) (NIH/Swiss mice): did not display 24 h duration | in vitro GLP-1 receptor functional activity (in words) (GLP-1 receptor): active in vitro against the GLP-1 receptor
